Reference: ChEMBL document CHEMBL4402532, “Heme Oxygenase-2 (HO-2) as a therapeutic target: Activators and inhibitors” (Eur J Med Chem, 2019)

What was measured:
Type in all cases: microsomes
Heme oxygenase 1 [1] = biological target: T1, Heme oxygenase 1 (Rattus norvegicus, UniProt P06762); assay: Inhibition of Sprague-Dawley rat spleen microsome HO-1 preincubated for 10 mins followed by beta-NADPH addition and measured after 15 mins by gas chromatography
T1 sequence (P06762 whole entry): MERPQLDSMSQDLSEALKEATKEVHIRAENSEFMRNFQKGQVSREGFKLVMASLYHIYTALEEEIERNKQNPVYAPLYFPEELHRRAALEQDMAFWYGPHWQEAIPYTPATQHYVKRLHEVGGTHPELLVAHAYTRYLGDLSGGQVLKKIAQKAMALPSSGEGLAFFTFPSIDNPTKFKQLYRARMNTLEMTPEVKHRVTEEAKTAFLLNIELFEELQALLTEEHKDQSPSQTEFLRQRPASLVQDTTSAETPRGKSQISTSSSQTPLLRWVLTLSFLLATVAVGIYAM

Heme oxygenase 2 [2] = biological target: T2, Heme oxygenase 2 (Rattus norvegicus, UniProt P23711); assay: Inhibition of Sprague-Dawley rat brain microsome HO-2 preincubated for 10 mins followed by beta-NADPH addition and measured after 15 mins by gas chromatography
T2 sequence (P23711 whole entry): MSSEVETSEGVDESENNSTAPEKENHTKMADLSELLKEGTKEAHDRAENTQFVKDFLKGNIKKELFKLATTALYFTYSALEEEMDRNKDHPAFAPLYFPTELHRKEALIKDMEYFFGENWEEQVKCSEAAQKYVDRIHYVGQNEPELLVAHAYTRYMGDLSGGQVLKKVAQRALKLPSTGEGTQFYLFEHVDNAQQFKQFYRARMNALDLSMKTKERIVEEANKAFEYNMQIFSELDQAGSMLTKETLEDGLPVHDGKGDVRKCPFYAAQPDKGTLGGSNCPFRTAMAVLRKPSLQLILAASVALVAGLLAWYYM

[3] = biological target: T3, Heme oxygenase 1 (Rattus norvegicus) (UniProt P06762); assay: Activation of rat spleen microsome HO-1 preincubated for 10 mins followed by NADPH addition and measured after 15 mins by gas chromatography relative to control; parameters: concentration or dose not given beside the values
T3 sequence (whole entry): T1 sequence (P06762 whole entry)

[4] = biological target: T4, Heme oxygenase 2 (Rattus norvegicus) (UniProt P23711); assay: Activation of rat brain microsome HO-2 […] preincubated for 10 mins followed by NADPH addition and measured after 15 mins by gas chromatography relative to control; parameters: concentration or dose not given beside the values
T4 sequence (whole entry): T2 sequence (P23711 whole entry)

Heme oxygenase 1 [5] = biological target: T1, Heme oxygenase 1; assay: Inhibition of rat spleen microsome HO-1 preincubated for 10 mins followed by beta-NADPH addition and measured after 15 mins by gas chromatography
Heme oxygenase 2 [6] = biological target: T2, Heme oxygenase 2; assay: Inhibition of rat brain microsome HO-2 preincubated for 10 mins followed by beta-NADPH addition and measured after 15 mins by gas chromatography

Compound | IC50 (Heme oxygenase 1 [1]) [nM] | IC50 (Heme oxygenase 2 [2]) [µM] | further results
Fc1ccc(CO[C@@H](CCc2ccc(Cl)cc2)Cn2ccnc2)cc1 | 900 | 1 | 
Cc1ccc(S(=O)(=O)C[C@@H]2CO[C@@](CCc3ccc(Cl)cc3)(Cn3ccnc3)O2)cc1 | 6000 | 3 | 
O=C1C(O)=C(Cl)C(=O)c2ccccc21 |  |  | Activity [3]: 106%; Activity [4]: 108%
COc1ccc(NC2=C(N3CCCCC3)C(=O)c3ccccc3C2=O)cc1 |  |  | Activity [3]: 82%; Activity [4]: 249%
Cc1oc2c(c1C(=O)N1CCCC1)C(=O)c1ccccc1C2=O |  |  | Activity [3]: 91%; Activity [4]: 602%
c1ccc(CSCCn2ccnc2)cc1 |  | 10 | 
O=C(Cn1ccnc1)c1ccc(Cl)c(Cl)c1Cl | 2100 | 6 | 
O[C@H](Cn1ccnc1)c1ccc(CCc2ccccc2)cc1 | 225 | 8 | 
CC(C)(C)N1COc2ccc3c4c(oc3c2C1)C(=O)c1ccccc1C4=O |  |  | Activity [3]: 85%; Activity [4]: 345%
COc1ccc(CC(O)CCn2ccnc2)cc1 (stereo unspecified) | 700 | 6 | 
c1ccc(CCCCCCn2ccnc2)cc1 | 2800 | 20 | 
OC(Cn1ccnc1)CC12CC3CC(CC(C3)C1)C2 (stereo unspecified) | 2000 | 6.5 | 
O=C1C=CC(=O)c2ccccc21 |  |  | Activity [3]: 71%; Activity [4]: 503%
O=C(Cc1ccc(Br)cc1)Cn1ccnn1 | 390 | 3 | 
c1ccc(Cn2c(CC3CC4CCC3C4)nc3ccccc32)cc1 (stereo unspecified) | > 100000 | 6.3 | 
CC(C)N1CCN(c2ccc(OCC3COC(Cn4cncn4)(c4ccc(Cl)cc4Cl)O3)cc2)CC1 (stereo unspecified) [TERCONAZOLE] |  |  | IC50 (Heme oxygenase 1 [5]): 410 nM; IC50 (Heme oxygenase 2 [6]): 5 µM
O=C(Cn1cncn1)c1ccc(Cc2ccccc2)cc1 | 2700 | 7 | 
c1ccc(CCCCn2ccnc2)cc1 | 250 | 6.7 | 
O=C(Cn1ccnc1)c1ccc(C2CCCCC2)cc1 | 5000 | 6 | 
O=C(Cn1ccnc1)c1ccc(Cl)c(Cl)c1 | 1240 |  | 
O=C1CCCc2ccccc21 |  |  | Activity [3]: 98%; Activity [4]: 96%
O=C(Cn1ccnc1)c1cccc2ccccc12 | 2240 | 10 | 
Cc1ccc(Cn2c(CC3CCCC3)nc3ccccc32)cc1 | 18100 | 8.6 | 
Brc1ccc(Cn2c(CC3CCCC3)nc3ccccc32)cc1 | 75600 | 8.4 | 
